The text below walks through data of patent US10961238B2, “Modulators of hedgehog (Hh) signaling pathway” (E-THERAPEUTICS PLC, priority 2016, dated 2021).

A word on the IC50: it is the midpoint of a concentration-inhibition curve.

The structures appear in SMILES notation.

This assay has as its system C3H10T1/2 cells. Put plainly: C3H assay: differentiation of C3H10T1/2 cells by mSHH, measurement of alkaline phosphatase. Type of assay: cell-based, mouse. The following applies: Mus musculus, C3H 10T1/2; C3H10T1/2 cells stimulated with mSHH for 72 hours; alkaline phosphatase activity; read-out: IC50 Ranges.

`CC(C)N(CC(=O)N1CC(S(=O)(=O)N2CCC(c3ccccc3)CC2)C1)C(C)C` [Compound 306, 2-[di(propan-2-yl)amino]-1-[3-(4-phenylpiperidin-1-yl)sulfonylaze-tidin-1-yl]ethanone]: the half-inhibitory concentration (IC50) lay within 100 to 1000 nM.
In the case of `C[C@@H](C(=O)N1CC(S(=O)(=O)N2CCC(c3ccccc3)CC2)C1)N(C)C` [Compound 307, 2-(dimethylamino)-1-[3-(4-phenyl-piperidin-1-yl)sulfonylaze-tidin-1-yl]propan-1-one] it was 1000 to 10000 nM.
To `Cc1noc(C)c1NC(=O)[C@H]1C[C@@H](S(=O)(=O)N2CCC(c3c[nH]c4ncccc34)CC2)C1` [Compound 309, cis-N-(3,5-dimethyl-1,2-oxazol-4-yl)-3-[4-(1H-pyrrolo [2,3-b]pyridin-3-yl)piperidin-1-yl]sulfonylcycl obutane-1-carboxamide] belongs 10 to 100 nM; to `Cc1noc(C)c1NC(=O)[C@H]1C[C@H](S(=O)(=O)N2CCC(c3c[nH]c4ncccc34)CC2)C1` [Compound 310, trans-N-(3,5-dimethyl-1,2-oxazol-4-yl)-3-[4-(1H-pyrrolo [2,3-b]pyridin-3-yl)piperidin-1-yl]sulfonylcycl obutane-1-carboxamide], 100 to 1000 nM.
To `O=S(=O)(C1CN(c2nc(-c3ccccc3)cs2)C1)N1CCC(c2c[nH]c3ncccc23)CC1` [Compound 311, 4-phenyl-2-[3-[4-(1H-pyrrolo[2,3-b]pyridin-3-yl)piperidin-1-yl]sulfonylazetidin-1-yl]-1,3-thiazole] belongs 10 to 100 nM; to `O=S(=O)(C1CN(c2nc3ccccc3s2)C1)N1CCC(c2c[nH]c3ncccc23)CC1` [Compound 312, 2-[3-[4-(1H-pyrrolo[2,3-b]pyridin-3-yl)piperidin-1-yl]sulfonylaze-tidin-1-yl]-1,3-benzothiazole], 10 to 100 nM; to `CN1CCC[C@H]1C(=O)N1CC(S(=O)(=O)N2CCC(c3ccccc3)CC2)C1` [Compound 315, [(2S)-1-methyl-pyrrolidin-2-yl]-[3-(4-phenylpiperidin-1-yl)sulfonylaze-tidin-1-yl]methanone], 1000 to 10000 nM.
For the compound `Cc1noc(C)c1C(=O)N1CC(S(=O)(=O)N2CCC(c3ccccc3)CC2)C1` [Compound 316, (3,5-dimethyl-1,2-oxazol-4-yl)-[3-(4-phenylpiperidin-1-yl)sulfonylaze-tidin-1-yl]methanone], the IC50 was 1000 to 10000 nM.
To `Cc1cc(Cl)ccc1C1CCN(S(=O)(=O)C2CN(C(=O)CN(C(C)C)C(C)C)C2)CC1` [Compound 317, 1-[3-[4-(4-chloro-2-methylphenyl)piperidin-1-yl]sulfonylaze-tidin-l-yl]-2-[di(propan-2-yl)amino] ethanone] belongs 100 to 1000 nM; to `Cc1cc(Cl)ccc1C1CCN(S(=O)(=O)C2CN(C(=O)[C@@H]3CCCN3C)C2)CC1` [Compound 318, [3-[4-(4-chloro-2-methylphenyl)piperidin-1-yl]sulfonylaze-tidin-1-yl]-[(2S)-1-methylpyrrolidin-2-yl]methanone], 1000 to 10000 nM; to `O=C(OC1CCOCC1)N1CC(S(=O)(=O)N2CCC(c3ccc(Cl)cc3)CC2)C1` [Compound 320, oxan-4-yl 3-[4-(4-chlorophenyl)piperidin-1-yl]sulfonylaze-tidine-1-carboxylate], 100 to 1000 nM.
To `CC(C)[C@H](CO)NC(=O)N1CC(S(=O)(=O)N2CCC(c3ccc(Cl)cc3)CC2)C1` [Compound 321, 3-[4-(4-chlorophenyl)piperidin-1-yl]sulfonyl-N-[(2R)-1-hydroxy-3-methylbutan-2-yl]azetidine-1-carboxamide] belongs 10 to 100 nM; to `Cc1noc(C)c1NC(=O)N1CC(S(=O)(=O)N2CCC(c3ccc(Cl)cc3)CC2)C1` [Compound 322, 3-[4-(4-chlorophenyl)piperidin-1-yl]sulfonyl-N-(3,5-dimethyl-1,2-oxazol-4-yl)azetidine-1-carboxamide], 10 to 100 nM; to `CC(C)(C(=O)N1CC(S(=O)(=O)N2CCC(c3c[nH]c4ncccc34)CC2)C1)C(F)(F)F` [Compound 323, 3,3,3-trifluoro-2,2-dimethyl-1-[3-[4-(1H-pyrrolo[2,3-b]pyridin-3-yl)piperidin-1-yl]sulfonylaze-tidin-1-yl]propan-1-one], 10 to 100 nM.
In the case of `CC(C)N(CC(=O)N1CC(S(=O)(=O)N2CCC(c3ccc(C#N)cc3)CC2)C1)C(C)C` [Compound 324, 4-[1-[1-[2-[di(propan-2-yl)amino]acetyl]azetidin-3-yl]sulfonylpiper-idin-4-yl]benzonitrile] it was 10 to 100 nM; in that of `CN(C)CC(=O)N1CC(S(=O)(=O)N2CCC(c3c[nH]c4ncccc34)CC2)C1` [Compound 325, 2-(dimethylamino)-1-[3-[4-(1H-pyrrolo[2,3-b]pyridin-3-yl)piperidin-1-yl]sulfonylaze-tidin-1-yl]ethanone], 1000 to 10000 nM; in that of `CC(C)N(CC(=O)N1CC(S(=O)(=O)N2CCC(c3c[nH]c4ncccc34)CC2)C1)C(C)C` [Compound 326, 2-[di(propan-2-yl)amino]-1-[3-[4-(1H-pyrrolo [2,3-b]pyridin-3-yl)piperidin-1-yl]sulfonylaze-tidin-1-yl]ethanone], 10 to 100 nM.
Take `CC(C)(C)OC(=O)N1CC(S(=O)(=O)N2CCC(c3ccc(F)cc3)CC2)C1` [Compound 327, tert-butyl 3-[4-(4-fluorophenyl)piperidin-l-yl]sulfonylaze-tidine-1-carboxylate]: the IC50 was 100 to 1000 nM.
Consider `CN(C)CC(=O)N1CC(S(=O)(=O)N2CCC(c3coc4cccnc34)CC2)C1` [Compound 329, 2-(dimethylamino)-1-[3-(4-furo[3,2-b]pyridin-3-ylpiperidin-1-yl)sulfonylaze-tidin-1-yl]ethanone], for which the concentration for half-maximal inhibition (IC50) fell in the range of 1000 to 10000 nM.
For `CC(C)N(CC(=O)N1CC(S(=O)(=O)N2CCC(c3coc4cccnc34)CC2)C1)C(C)C` [Compound 330, 2-[di(propan-2-yl)amino]-1-[3-(4-furo[3,2-b]pyridin-3-ylpiperidin-1-yl)sulfonylaze-tidin-1-yl]ethanone], the IC50 is 10 to 100 nM.
In the case of `N#Cc1ccc(C2CCN(S(=O)(=O)C3CN(C(=O)NC4(C(F)(F)F)CC4)C3)CC2)cc1` [Compound 331, 3-[4-(4-cyanophenyl)piperidin-1-yl]sulfonyl-N-[1 (trifluoromethyl)cyclopropyl] azetidine-1-carboxamide] it was 10 to 100 nM.
Turning to `C[C@@H](NC(=O)N1CC(S(=O)(=O)N2CCC(c3c[nH]c4ncccc34)CC2)C1)C(F)(F)F` [Compound 332, 3-[4-(1H-pyrrolo [2,3-b]pyridin-3-yl)piperidin-1-yl]sulfonyl-N-[(2R)-1,1,1-trifluoropropan-2-yl]azetidine-1-carboxamide], the IC50 was 10 to 100 nM.
To `N#Cc1ccc(NC(=O)N2CC(S(=O)(=O)N3CCC(c4c[nH]c5ncccc45)CC3)C2)cc1` [Compound 335, N-(4-cyanophenyl)-3-[4-(1H-pyrrolo [2,3-b]pyridin-3-yl)piperidin-1-yl]sulfonylaze-tidine-1-carboxamide] belongs 10 to 100 nM; to `CC(C)(C)OC(=O)NC1CC(S(=O)(=O)N2CCC(c3c[nH]c4ncccc34)CC2)C1` (stereo not shown) [Compound 336, tert-butyl N-[3-[4-(1H-pyrrolo[2,3-b]pyridin-3-yl)piperidin-1-yl]sulfonylcyclobutyl] carbamate], 10 to 100 nM; to `O=S(=O)(C1CN(c2nc3ccccc3s2)C1)N1CCC(c2ccncc2)CC1` [Compound 337, 2-[3-(4-pyridin-4-ylpiperidin-1-yl)sulfonylaze-tidin-1-yl]-1,3-benzothiazole], 100 to 1000 nM.
In the case of `O=S(=O)(C1CN(c2nc3ccccc3o2)C1)N1CCC(c2c[nH]c3ncccc23)CC1` [Compound 338, 2-[3-[4-(1H-pyrrolo[2,3-b]pyridin-3-yl)piperidin-1-yl]sulfonylaze-tidin-1-yl]-1,3-benzoxazole] it was 10 to 100 nM.
As for `CC(C)(C)OC(=O)N1CC(S(=O)(=O)N2CCC(c3c[nH]c4cnccc34)CC2)C1` [Compound 339, tert-butyl 3-[4-(1H-pyrrolo[2,3-c]pyridin-3-yl)piperidin-1-yl]sulfonylaze-tidine-1-carboxylate], the IC50 was in the range of 1000 to 10000 nM.
As to `CN(C(=O)N1CC(S(=O)(=O)N2CCC(c3ccc(F)cc3)CC2)C1)C1CC1` [Compound 340, N-cyclopropyl-3-[4-(4-fluorophenyl)piperidin-1-yl]sulfonyl-N-methylazetidine-1-carboxamide], the IC50 was in the range of 1000 to 10000 nM.
For the compound `O=C(NC1(C(F)(F)F)CC1)N1CC(S(=O)(=O)N2CCC(c3ccc(Cl)cc3)CC2)C1` [Compound 341, 3-[4-(4-chlorophenyl)piperidin-1-yl]sulfonyl-N-[1-(trifluoromethyl)cyclopropyl] azetidine-1-carboxamide], the IC50 was 10 to 100 nM.
To `Cc1noc(C)c1CC(=O)N1CC(S(=O)(=O)N2CCC(c3ccc(F)cc3)CC2)C1` [Compound 342, 2-(3,5-dimethyl-1,2-oxazol-4-yl)-1-[3-[4-(4-fluorophenyl)piperidin-1-yl]sulfonylazetidin-1-yl]ethanone] belongs 10 to 100 nM; to `CC(C)N(CC(=O)N1CC(S(=O)(=O)N2CCC(c3ccc(F)cc3)CC2)C1)C(C)C` [Compound 343, 2-[di(propan-2-yl)amino]-1-[3-[4-(4-fluorophenyl)piperidin-1-yl]sulfonylaze-tidin-l-yl]ethanone], 100 to 1000 nM.
In the case of `O=C(NC1(C(F)(F)F)CC1)[C@H]1C[C@H](S(=O)(=O)N2CCC(c3coc4cccnc34)CC2)C1` [Compound 345, trans-3-(4-furo[3,2-b]pyridin-3-ylpiperidin-1-yl)sulfonyl-N-[1-(trifluoromethyl)cyclopropyl] cyclobutane-1-carboxamide] it was 100 to 1000 nM; in that of `CC(C)(C)NC(=O)[C@H]1C[C@H](S(=O)(=O)N2CCC(c3coc4cccnc34)CC2)C1` [Compound 346, trans-N-tert-butyl-3-(4-furo[3,2-b]pyridin-3-ylpiperidin-1-yl) sulfonylcyclobutane-1-carboxamide], 1000 to 10000 nM.
To `Cc1noc(C)c1CC(=O)N1CC(S(=O)(=O)N2CCC(c3ccc(C#N)cc3)CC2)C1` [Compound 349, 4-[1-[1-[2-(3,5-dimethyl-1,2-oxazol-4-yl)acetyl]azetidin-3-yl]sulfonylpiper-idin-4-yl]benzonitrile] belongs 10 to 100 nM.
